Results from patent publication US10953040B2, “Methods of treating bacterial infections with penam β-lactam antibiotics and branched poly(ethylenimine)” (priority 2015, dated 2021).
Values after ≈ are worked out from the molar mass of the structure shown. Values joined by “and” are separate entries in the source; they are usually repeats but may differ in a detail not shown here. Equal entries are not always repeated. “Also recorded” adds a separate entry of the source. Where two headings read alike, the source gives them in different places.

Legend:
Format in all cases: cell-based
[1] = system: methicillin-resistant Staphylococcus aureus (MRSA) strain ATCC 700787; test: MRSA checkerboard growth inhibition assay with FIC; settings: for MIC: Staphylococcus aureus; for interaction with BPEI by FIC values (synergy / additive): OD600<0.05 = growth inhibition; for OD600 of growth media: 20 hours
Description: The fractional inhibitory concentration (FIC) as used herein is a measure of the interaction of two agents, such as an antibiotic and a BPEI compound, used together, and is an indicator of synergy. FIC uses a value of the MIC of each of the independent agents, e.g., MICA and MICB for agents A and B, for a particular bacterium as the basis, then takes the concentration of each component in a mixture where an MIC(A in B) is observed. For example, for a two component system of agents A and B, MIC(A in B) is the concentration of A in the compound mixture and MIC(B in A) is the concentration of B in the compound mixture. The FIC is defined as follows: FICA=(MIC(A in B)/MICA) Eqn. 1 FICB=(MIC(B in A)/MICB) Eqn. 2 FICA+B=FICA+FICB Eqn. 3
Synergism (i.e., the two compounds together provide a synergistic effect) is defined herein as occurring when FICA+B≤0.5. The mixture is defined as having an additive effect when […]. When, FICA+B>4 the mixture is considered to have an antagonistic interaction. An example of how FIC is used to determine synergism is shown in U.S. Pat. No. 8,338,476, the entirety of which is incorporated herein by reference in its entirety.
(§1) A stock culture was diluted in tryptic soy broth (TSB) and delivered into pre-sterilized 96-well plates. Stock solutions of BPEI and antibiotics, prepared in DMSO, were added to each well of a 96-well plate (final DMSO concentration was 1%), followed by inoculation with MRSA in TSB. Optical density measurements were performed with a Tecan Infinite M200 plate reader and an initial OD600 value recorded. The plates were incubated for 20 h in a humidified incubator at 37° C. Plates were removed, orbitally shaken, and a final OD600 value recorded. […] to obtain the change in OD600 (recorded in the figures as ΔOD600). Antimicrobial activity was determined by the change in optical density. Duplicate measurements were performed and the average reported.
(§2) Using the average ΔOD600 values, separate MIC values for BPEI and ampicillin were determined by the lowest concentration of each that inhibited growth.

[2] = system: methicillin-resistant Staphylococcus aureus (MRSA) strain ATCC 700787; test: microbe, parasite or virus in culture; settings: for MIC / concentration inhibiting MRSA growth: FIG. 6-8; for MIC: Staphylococcus aureus; for synergy with BPEI / change of efficacy against MRSA on addition of BPEI: BPEI 2.65 μg/mL, FIG. 6-10
Method: as §1, §2

[3] = system: Staphylococcus aureus ATCC 25923; test: non-resistant S. aureus growth inhibition assay (ΔOD600 after 20 h); settings: ATCC25923, ampicillin by itself, FIG. 14
Method: (§3) The bacteria used in this work were obtained from the American Type Culture Collection (methicillin-resistant Staphylococcus aureus (MRSA) strain ATCC 700787, Staphylococcus aureus ATCC 25923, Escherichia coli ATCC 11775, Bacillus subtilis (Ehrenberg) Cohn ATCC 23059). Chemicals from Sigma-Aldrich (e.g., DMSO, ampicillin, methicillin, vancomycin, chloramphenicol, and novobiocin) were used as purchased.
as §1

[4] = system: Escherichia coli ATCC 11775; test: E. coli growth inhibition assay (ΔOD600 after 20 h)
Method: as §3, §1

[5] = without BPEI, checkerboard FIG. 18-21, read-out: MIC
[6] = with BPEI 2.65 μg/mL (2.7 μg/mL)

Structure (SMILES): CC1(C)S[C@@H]2[C@H](NC(=O)[C@H](N)c3ccc(O)cc3)C(=O)N2[C@H]1C(=O)O [amoxicillin]
- MIC [1, 5]: > 32 µg/mL
- interaction with BPEI by FIC values (synergy / additive) ([1]; checkerboard FIG. 18-21): synergistic activity
- MIC / concentration inhibiting MRSA growth ([2]; antibiotic without BPEI): 58 µg/mL (≈ 159 µM)
- MIC / concentration inhibiting MRSA growth [2, 6]: 30 µg/mL and 29 µg/mL

Structure (SMILES): CC1(C)S[C@@H]2[C@H](NC(=O)[C@H](N)c3ccccc3)C(=O)N2[C@H]1C(=O)O [ampicillin]
- MIC [3]: ~0.05 µg/mL (≈ 0.143 µM)
- MIC ([1]; with BPEI 8 μg/mL, Table 1, read-out: ampicillin MIC): 8 µg/mL
- MIC ([1]; with low-Mw BPEI 16 μg/mL, Table 1, read-out: ampicillin MIC): 1 µg/mL
- MIC ([1]; without BPEI, Table 1, read-out: ampicillin MIC): 32 µg/mL
- MIC [1, 5]: > 32 µg/mL
- OD600 of growth media ([1]; ampicillin 0.125 + BPEI 0 μg/mL): 0.4361
- OD600 of growth media ([1]; ampicillin 0.250 + BPEI 0 μg/mL): 0.4282
- OD600 of growth media ([1]; ampicillin 0.500 + BPEI 0 μg/mL): 0.4342
- OD600 of growth media ([1]; ampicillin 1 + BPEI 0 μg/mL): 0.4289
- OD600 of growth media ([1]; ampicillin 2 + BPEI 0 μg/mL): 0.4294
- OD600 of growth media ([1]; ampicillin 4 + BPEI 0 μg/mL): 0.4375
- OD600 of growth media ([1]; ampicillin 8 + BPEI 0 μg/mL): 0.4344
- OD600 of growth media ([1]; ampicillin 16 + BPEI 0 μg/mL): 0.3287
- OD600 of growth media ([1]; ampicillin 32 + BPEI 0 μg/mL): 0.0003
- OD600 of growth media ([1]; ampicillin 64 + BPEI 0 μg/mL): 0.0014
- interaction with BPEI by FIC values (synergy / additive) ([1]; checkerboard FIG. 18-21): synergistic activity; also recorded: Synergy
- factor by which the ampicillin MIC is lowered ([1]; with low-Mw BPEI 16 μg/mL): 32 ×
- MIC ([2]; read-out: MIC for ampicillin, with BPEI 2.7 μg/mL, FIG. 2): 12 to 25 µg/mL (≈ 34.3 to 71.5 µM)
- MIC ([2]; read-out: MIC for ampicillin, with BPEI 26 μg/mL, FIG. 5): ~1.2 µg/mL (≈ 3.43 µM)
- MIC ([2]; read-out: MIC for ampicillin, without BPEI, FIG. 2): > 50 µg/mL
- MIC ([2]; read-out: MIC for ampicillin, without BPEI, FIG. 3 (second data set)): 50 µg/mL (≈ 143 µM)
- MIC ([4]; ATCC11775, ampicillin alone, FIG. 12): 3.7 µg/mL (≈ 10.6 µM)
- MIC ([4]; ATCC11775, with BPEI 2.65 μg/mL, FIG. 12, read-out: MIC for ampicillin): 3.7 µg/mL (≈ 10.6 µM)

Structure (SMILES): O=C(N[C@H](CO)[C@H](O)c1ccc([N+](=O)[O-])cc1)C(Cl)Cl [chloramphenicol]
- synergy with BPEI / change of efficacy against MRSA on addition of BPEI [2]: large synergy; also recorded: dramatic synergistic effect
- MIC / concentration inhibiting MRSA growth ([2]; antibiotic without BPEI): 50 µg/mL (≈ 155 µM)
- decrease in the MIC ([2]; on addition of 2.7 μg/mL BPEI, FIG. 8): 10 fold
- MIC / concentration inhibiting MRSA growth [2, 6]: 5 µg/mL (≈ 15.5 µM)

Structure (SMILES): COc1cccc(OC)c1C(=O)N[C@@H]1C(=O)N2[C@@H]1SC(C)(C)[C@@H]2C(=O)O [methicillin]
- MIC [1, 5]: > 32 µg/mL
- interaction with BPEI by FIC values (synergy / additive) ([1]; checkerboard FIG. 18-21): Synergy occurred
- MIC / concentration inhibiting MRSA growth ([2]; antibiotic without BPEI): > 60 µg/mL
- MIC / concentration inhibiting MRSA growth [2, 6]: 30 µg/mL (≈ 78.9 µM)

Structure (SMILES): CN[C@H](CC(C)C)C(=O)N[C@H]1C(=O)N[C@@H](CC(N)=O)C(=O)N[C@H]2C(=O)N[C@H]3C(=O)N[C@H](C(=O)N[C@H](C(=O)O)c4cc(O)cc(O)c4-c4cc3ccc4O)[C@H](O)c3ccc(c(Cl)c3)Oc3cc2cc(c3O[C@@H]2O[C@H](CO)[C@@H](O)[C@H](O)[C@H]2O[C@H]2C[C@](C)(N)[C@H](O)[C@H](C)O2)Oc2ccc(cc2Cl)[C@H]1O [vancomycin]
- MIC [1]: 4 µg/mL
- interaction with BPEI by FIC values (synergy / additive) ([1]; checkerboard FIG. 18-21): additive
- synergy with BPEI / change of efficacy against MRSA on addition of BPEI [2]: did not show any synergy; also recorded: does not change

Structure (SMILES): CO[C@@H]1[C@@H](OC(N)=O)[C@@H](O)[C@H](Oc2ccc3c(O)c(NC(=O)c4ccc(O)c(CC=C(C)C)c4)c(=O)oc3c2C)OC1(C)C [novobiocin]
- synergy with BPEI / change of efficacy against MRSA on addition of BPEI [2]: did not show any synergy; also recorded: not substantially altered
